Series [1] addresses T1, LXRα (Homo sapiens, UniProt Q13133).
T1 sequence (Q13133 1-447): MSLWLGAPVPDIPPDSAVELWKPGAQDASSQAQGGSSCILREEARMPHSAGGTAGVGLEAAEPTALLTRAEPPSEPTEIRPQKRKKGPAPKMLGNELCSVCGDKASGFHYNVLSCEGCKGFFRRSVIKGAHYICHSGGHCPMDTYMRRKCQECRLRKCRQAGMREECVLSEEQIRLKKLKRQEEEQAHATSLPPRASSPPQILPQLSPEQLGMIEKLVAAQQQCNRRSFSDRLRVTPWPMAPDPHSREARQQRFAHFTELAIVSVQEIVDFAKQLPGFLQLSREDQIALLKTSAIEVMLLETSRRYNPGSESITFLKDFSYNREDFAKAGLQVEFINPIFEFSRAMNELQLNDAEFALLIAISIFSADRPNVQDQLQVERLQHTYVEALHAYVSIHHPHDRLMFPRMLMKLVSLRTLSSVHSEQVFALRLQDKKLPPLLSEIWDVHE
The series can be described thus: LXRα response element-driven luciferase reporter assay in COS-7 cells. As to conditions: 1 μM. On the technique in general: In a reporter assay the amount or activity of a reporter protein is the signal.
Experimental: Luciferase reporter assay was performed as described previously [53]. Briefly, human hepatoma Huh-7 (for FXR, RARα, and RXRα), transformed African green monkey kidney fibroblast COS-7 (for LXRα/β and PPARα/γ/δ), or human embryonic kidney HEK293 (for VDR and TGR5) cells were transfected with each of plasmids for nuclear receptor and nuclear receptor-response element-driven luciferase gene. […] The luciferase activity was measured as described previously [53].

The subject of series [2] is ALP gene expression in ST-2 MSCs. The series can be described thus: qPCR of ALP gene during osteoblast differentiation. The series is classed as cell-based, mouse. Particulars: for ALP gene expression (mRNA level): with BMP-2 50 ng/mL, 6 or 12 days, 10 μM CDCA, 5 μM GW4064, 5 μM 3 or 4, vs BMP-2-treated cells. Here is the method: (§1) Mouse ST-2 MSCs were obtained from RIKEN BioResource Research Center (Tsukuba, Japan) and cultured in RPMI-1640 medium (Sigma) containing 10% (v/v) fetal calf serum and antibiotics (100 units/mL penicillin and 100 μg/mL streptomycin; Nacalai Tesque) at 37 °C in an atmosphere of 5% CO2. The ST-2 MSCs were allowed to differentiate into osteoblasts for 6 or 12 days in RPMI-1640 medium with BMP-2 (50 ng/mL). The medium was changed every 3 days.
(§2) RNAiso Plus was used to isolate total RNA (Takara-Bio, Kyoto, Japan). Subsequently total RNA (1 μg) was reverse-transcribed to cDNAs using ReverTra Ace reverse transcriptase (Toyobo, Osaka, Japan) and random hexamer (Takara-Bio). Thereafter, the mRNA levels were determined by qPCR analysis using a Power SYBR Green Master Mix (Thermo Fisher Scientific) in an Applied Biosystems 7500 Real Time PCR System (Thermo Fisher Scientific). The relative mRNA expression levels were determined using the 2^−ΔΔCT method and normalized to that of glyceraldehyde-3-phosphate dehydrogenase (GAPDH).
(In qPCR the cycle at which signal appears reflects the starting amount.)

In series [3] the test system is FXR, BSEP and SHP gene expression in ST-2 MSCs. The series can be described thus: qPCR of FXR and FXR-target genes (BSEP, SHP) during osteoblast differentiation. The series is classed as cell-based, mouse. As to conditions: for mRNA expression level of FXR: with BMP-2 50 ng/mL, 6 and 12 days, 10 μM CDCA, 5 μM GW4064, 5 μM 3 or 4, vs BMP-2-treated cells. As for the experimental part:
as §1, §2

In series [4] the test system is ST-2 MSCs. The series can be described thus: ALP staining and ALP activity in BMP-2-induced osteoblast differentiation. Particulars: for staining and activity of ALP: with BMP-2 50 ng/mL, 6 or 12 days, 10 μM CDCA, 5 μM GW4064, 5 μM 3 or 4, vs BMP-2-treated cells. The series is classed as cell-based, mouse. Here is the method: as §1
The ST-2 MSCs were allowed to differentiate into osteoblasts for 12 days in RPMI-1640 medium with BMP-2 (50 ng/mL) and one of FXR agonists together with or without GS (25 μM). Then, the cells were washed twice with PBS and fixed with 10% (v/v) formaldehyde in PBS at 25 °C for 10 min. The cells were again washed with PBS, and incubated with the staining solution (0.1 mg/mL naphthol AS-MX phosphate and 0.6 mg/mL Fast-blue BB salt in 0.1 M Tris-Cl, pH 8.8) at 25 °C for 30 min. After removing the staining solution, the cells were washed with PBS and visualized under a microscope (CKX-41, Olympus, Tokyo, Japan).
The ALP activity was measured using LabAssay ALP (FUJIFILM Wako Pure Chemical) according to the manufacturer’s protocols. Protein concentrations were measured using a Pierce BCA Protein Assay Kit (Thermo Fisher Scientific).

Series [5] deals with RUNX2, COL1A1 and OCN gene expression in ST-2 MSCs. The series can be described thus: qPCR of osteogenic genes (RUNX2, COL1A1, OCN) during osteoblast differentiation. The series is classed as cell-based, mouse. As to conditions: for expression of RUNX2, COL1A1 and OCN genes: with BMP-2 50 ng/mL, 10 μM CDCA, 5 μM GW4064, 5 μM 3 or 4, vs BMP-2-treated cells. As for the experimental part:
as §1, §2

Series [6] concerns ST-2 MSCs. Put plainly: Cell toxicity (WST, Cell Counting Kit-8) assay. The series is classed as cell-based, mouse. Particulars: 12 days; 0–10 μM CDCA, 0–5 μM GW4064, 0–5 μM 3 or 4. Here is the method:
The cells were washed twice with PBS, and cell viability was determined using Cell Counting Kit-8 (Dojindo Molecular Technologies, Kumamoto, Japan) according to the protocols provided by the supplier. The cell viability (%) was shown relative to the vehicle-treated cells (0 μM).

The subject of series [7] is FXR. As to conditions: cited from earlier work.

Regarding `CC(C)c1onc(-c2c(Cl)cccc2Cl)c1COc1ccc(-c2nc3ccc(C(=O)O)cc3n2C)cc1` [FXR agonist 1], the “LXRα-response element-driven luciferase activity” value in series [1] is recorded as “increased”.

On to `CC(C)c1onc(-c2c(Cl)cccc2Cl)c1COc1ccc(-c2nc3cc(C(=O)O)ccc3n2C)cc1` [FXR agonist 2], for which the “LXRα-response element-driven luciferase activity” value in series [1] is on record as “increased”.

Take `C/C=C1\C(=O)C[C@H]2[C@@H]3CCC4=CC(=O)CC[C@]4(C)[C@H]3CC[C@]12C` [GS, (Z)-guggulsterone]: the “effect on FXR agonist-induced ALP gene expression” value in series [2] (co-treatment with 25 μM GS) is reported as “repressed”. Besides, in series [3] (co-treatment with 25 μM GS), the “effect on FXR agonist-induced BSEP and SHP expression” value is reported as “suppressed”; the “effect on FXR agonist-induced FXR gene expression” value is listed as “repressed”. Also, the “effect on FXR agonist-induced staining and activity of ALP” value in series [4] (co-treatment with 25 μM GS) was “suppressed”. The “effect on novel FXR agonist-induced expression of osteogenic genes” value in series [5] (co-treatment with 25 μM GS) is on record as “repressed”.

For `CC(C)c1onc(-c2c(Cl)cccc2Cl)c1COc1ccc(/C=C/c2cccc(C(=O)O)c2)c(Cl)c1` [GW4064], the “ALP gene expression (mRNA level)” value in series [2] is on record as “elevated”. Further, the “mRNA expression level of FXR” value in series [3] is recorded as “elevated”. In addition, the “staining and activity of ALP” value in series [4] is “elevated”. The “cytotoxicity (cell viability, WST assay)” value in series [6] is “No cytotoxicity”. Moreover, in series [5] (6 days), the “expression of RUNX2, COL1A1 and OCN genes” value (shortened to “expression of RUNX2”) is on record as “further enhanced”.

In the case of `CC(C)c1onc(-c2c(Cl)cccc2Cl)c1COc1ccc(-c2nc3ccc(C(=O)O)cc3n2C)cc1Cl` [FXR agonist 3], the “ability to enhance ALP gene expression compared with GW4064” value in series [2] (5 μM, with BMP-2) is “comparable to that of GW4064”. The “ALP gene expression (mRNA level)” value in series [2] was “enhance”. In series [3], the “mRNA expression level of FXR” value is “elevated”. Also, in series [4] (6- or 12-days-differentiated ST-2 MSCs, 5 μM), the “ability to enhance ALP staining and activity compared with GW4064” value is “comparable to that of GW4064”. Further, in series [4], the “staining and activity of ALP” value is given as “enhanced”. Further, the “cytotoxicity (cell viability, WST assay)” value in series [6] is given as “No cytotoxicity”. Besides, the “increase of RUNX2, COL1A1 and OCN expression compared with GW4064” value in series [5] (6 days, 5 μM, with BMP-2) is “comparable to that of GW4064”. For the same compound, the “expression of RUNX2” value in series [5] (6 days) is given as “elevated”.

With `C[C@H](CCC(=O)O)[C@H]1CC[C@H]2[C@@H]3[C@H](O)C[C@@H]4C[C@H](O)CC[C@]4(C)[C@H]3CC[C@]12C` [CDCA, chenodeoxycholic acid], in series [2], the “ALP gene expression (mRNA level)” value is listed as “elevated”. For the same compound, the “mRNA expression level of FXR” value in series [3] is “elevated”. The “staining and activity of ALP” value in series [4] was “elevated”. The “cytotoxicity (cell viability, WST assay)” value in series [6] is “No cytotoxicity”. For the same compound, the “expression of RUNX2” value in series [5] (6 days) is recorded as “further enhanced”.

`CC[C@H]1[C@@H](O)[C@@H]2[C@H](CC[C@]3(C)[C@@H]([C@H](C)CCC(=O)O)CC[C@@H]23)[C@@]2(C)CC[C@@H](O)C[C@@H]12` [6-ECDCA, 6α-ethylchenodeoxycholic acid]: in series [7], the “potency relative to CDCA” value was “about 100 fold”.

Regarding `CC(C)c1onc(-c2c(Cl)cccc2Cl)c1COc1ccc(-c2nc3ccc(C(=O)O)cc3n2C)c(Cl)c1` [FXR agonist 4, 2-[2-Chloro-4-[[3-(2,6-dichlorophenyl)-5-isopropyl-isoxazol-4-yl]methoxy]phenyl]-3-methyl-benzimidazole-5-carboxylic acid], in series [2], the “ALP gene expression (mRNA level)” value is listed as “enhance”. Moreover, the “mRNA expression level of FXR” value in series [3] was “elevated”. Also, the “staining and activity of ALP” value in series [4] is reported as “enhanced”. Moreover, the “cytotoxicity (cell viability, WST assay)” value in series [6] is given as “No cytotoxicity”. Further, in series [5] (6 days), the “expression of RUNX2” value is “elevated”.

Source of the values: article PMC6891315, “Synthesis of Novel Farnesoid X Receptor Agonists and Validation of Their Efficacy in Activating Differentiation of Mouse Bone Marrow-Derived Mesenchymal Stem Cells into Osteoblasts” (Molecules, 2019).
